Assay results reported in PubChem BioAssay AID330 (DTP/NCI, 2004).
Values joined by “and” are separate entries in the source; they are usually repeats but may differ in a detail not shown here. Equal values may be shown once. Inconclusive results and toxic doses are left out. Peptide text beside a SMILES is read from it.

Tested on: P388 leukemia ip, CD2F1 mice, survival T/C
Experiment: NCI In Vivo Anticancer Drug Screen. Data for tumor model P388 Leukemia (intraperitoneal) in CD2F1 (CDF1) mice
Conditions: endpoint: median survival time, higher = longer survival
Summary of the method: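 Mice carrying the transplanted tumor received test compound or vehicle. Survival was recorded in each group, and the value is the treated-group measurement divided by that of the vehicle-treated control group.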

[1] = dose: 50.0 mg/kg/injection, schedule: Q01DX009 (ip), vehicle: saline with Tween-80
[2] = dose: 100.0 mg/kg/injection, schedule: Q01DX009 (ip), vehicle: saline with Tween-80
[3] = dose: 200.0 mg/kg/injection, schedule: Q01DX009 (ip), vehicle: saline with Tween-80
[4] = dose: 60.0 mg/kg/injection, schedule: Q01DX005 (ip), vehicle: saline with Tween-80
[5] = dose: 120.0 mg/kg/injection, schedule: Q01DX005 (ip), vehicle: saline with Tween-80
[6] = dose: 240.0 mg/kg/injection, schedule: Q01DX005 (ip), vehicle: saline with Tween-80
[7] = dose: 50.0 mg/kg/injection, schedule: Q01DX005 (ip), vehicle: Klucel (hydroxypropylcellulose) (HPC)
[8] = dose: 100.0 mg/kg/injection, schedule: Q01DX005 (ip), vehicle: Klucel (hydroxypropylcellulose) (HPC)
[9] = dose: 200.0 mg/kg/injection, schedule: Q01DX005 (ip), vehicle: Klucel (hydroxypropylcellulose) (HPC)
[10] = dose: 100.0 mg/kg/injection, schedule: Q04DX003 (ip), vehicle: saline with Tween-80
[11] = dose: 200.0 mg/kg/injection, schedule: Q04DX003 (ip), vehicle: saline with Tween-80
[12] = dose: 50.0 mg/kg/injection, schedule: Q01DX009 (ip), vehicle: saline
[13] = dose: 100.0 mg/kg/injection, schedule: Q01DX009 (ip), vehicle: saline
[14] = dose: 200.0 mg/kg/injection, schedule: Q01DX009 (ip), vehicle: saline

For `CCOCC(=O)N[C@H]1CCc2cc(OC)c(OC)c(OC)c2-c2ccc(OC)c(=O)cc21`, the T/C (dose: 0.31 mg/kg/injection, schedule: Q01DX009 (ip), vehicle: water) was 150 % of control, the T/C (dose: 0.63 mg/kg/injection, schedule: Q01DX009 (ip), vehicle: water) was 171 % of control and the T/C (dose: 1.25 mg/kg/injection, schedule: Q01DX009 (ip), vehicle: water) was 198 % of control and 221 % of control.

`CC(=O)OCN1C(=O)N(COC(C)=O)C(c2ccccc2)(c2ccccc2)C1=O` was tested, and the T/C (dose: 60.0 mg/kg/injection, schedule: Q01DX005 (ip), vehicle: Klucel (hydroxypropylcellulose) (HPC)) was 104 % of control, the T/C (dose: 120.0 mg/kg/injection, schedule: Q01DX005 (ip), vehicle: Klucel (hydroxypropylcellulose) (HPC)) was 105 % of control and the T/C (dose: 240.0 mg/kg/injection, schedule: Q01DX005 (ip), vehicle: Klucel (hydroxypropylcellulose) (HPC)) was 103 % of control.

With `Cc1cc2c(cc1CC(=O)O)CC(=O)NC2` the T/C (dose: 1.56 mg/kg/injection, schedule: Q01DX009 (ip), vehicle: distilled water + Tween-80) was 109 % of control, the T/C (dose: 3.13 mg/kg/injection, schedule: Q01DX009 (ip), vehicle: distilled water + Tween-80) was 104 % of control and the T/C (dose: 6.25 mg/kg/injection, schedule: Q01DX009 (ip), vehicle: distilled water + Tween-80) was 123 % of control and 95 % of control. The T/C (dose: 12.5 mg/kg/injection, schedule: Q01DX009 (ip), vehicle: distilled water + Tween-80) was 101 % of control, the T/C (dose: 25.0 mg/kg/injection, schedule: Q01DX009 (ip), vehicle: distilled water + Tween-80) was 101 % of control and 96 % of control and the T/C (dose: 50.0 mg/kg/injection, schedule: Q01DX009 (ip), vehicle: distilled water + Tween-80) was 104 % of control and 96 % of control. For the same compound, the T/C (dose: 100.0 mg/kg/injection, schedule: Q01DX009 (ip), vehicle: distilled water + Tween-80) was 102 % of control and 95 % of control, the T/C (dose: 200.0 mg/kg/injection, schedule: Q01DX009 (ip), vehicle: distilled water + Tween-80) was 100 % of control and the T/C (dose: 400.0 mg/kg/injection, schedule: Q01DX009 (ip), vehicle: distilled water + Tween-80) was 92 % of control.

For `CCCSc1nc2c(N)nc(-c3ccccc3)nc2nc1N`, the T/C [1] was 108 % of control, the T/C [2] was 105 % of control and the T/C [3] was 105 % of control.

With `CC(C)CC(NC(=O)C(N)CCCN=C(N)N)C(=O)O` (stereo not drawn) (H-Arg-Leu-OH; configuration not given here) the T/C (dose: 50.0 mg/kg/injection, schedule: Q01DX005 (ip), vehicle: saline) was 100 % of control, the T/C (dose: 100.0 mg/kg/injection, schedule: Q01DX005 (ip), vehicle: saline) was 100 % of control and the T/C (dose: 200.0 mg/kg/injection, schedule: Q01DX005 (ip), vehicle: saline) was 106 % of control.

With `COC(=O)CC(O)CCCCCCCCCCCCC(C)C` (stereo not given) the T/C (dose: 8.75 mg/kg/injection, schedule: Q01DX005 (ip), vehicle: Klucel + Tween-80) was 92 % of control, the T/C (dose: 17.5 mg/kg/injection, schedule: Q01DX005 (ip), vehicle: Klucel + Tween-80) was 100 % of control and the T/C (dose: 35.0 mg/kg/injection, schedule: Q01DX005 (ip), vehicle: Klucel + Tween-80) was 97 % of control.

In the case of `NCCC(=O)OCN1C(=O)C2C3C=CC(C2C1=O)C1C2C(=O)N(COC(=O)CCN)C(=O)C2C31` (stereo not given), the T/C (dose: 12.5 mg/kg/injection, schedule: Q01DX009 (ip), vehicle: water) is reported as 88 % of control, the T/C (dose: 25.0 mg/kg/injection, schedule: Q01DX009 (ip), vehicle: water) is reported as 102 % of control and the T/C (dose: 50.0 mg/kg/injection, schedule: Q01DX009 (ip), vehicle: water) is reported as 99 % of control. The T/C (dose: 100.0 mg/kg/injection, schedule: Q01DX009 (ip), vehicle: water) was 100 % of control and the T/C (dose: 200.0 mg/kg/injection, schedule: Q01DX009 (ip), vehicle: water) was 118 % of control.

In the case of `O=C(OCc1ccccc1)C(Cc1ccccc1)NC(=O)C(Cc1ccc(O)cc1)N(C(=O)OCc1ccccc1)C(=O)OCc1ccccc1` (stereo not given), the T/C (dose: 50.0 mg/kg/injection, schedule: Q01DX005 (ip), vehicle: saline with Tween-80) is reported as 103 % of control, the T/C (dose: 100.0 mg/kg/injection, schedule: Q01DX005 (ip), vehicle: saline with Tween-80) is reported as 100 % of control and the T/C (dose: 200.0 mg/kg/injection, schedule: Q01DX005 (ip), vehicle: saline with Tween-80) is reported as 91 % of control.

With `CN1CC=C(c2ccccc2)C(O)C1` (stereo not given) the T/C (dose: 12.5 mg/kg/injection, schedule: Q04DX002 (ip), vehicle: saline) was 116 % of control, the T/C (dose: 15.0 mg/kg/injection, schedule: Q01DX005 (ip), vehicle: saline) was 100 % of control and the T/C (dose: 25.0 mg/kg/injection, schedule: Q04DX002 (ip), vehicle: saline) was 101 % of control. The T/C (dose: 30.0 mg/kg/injection, schedule: Q01DX005 (ip), vehicle: saline) was 99 % of control, the T/C (dose: 50.0 mg/kg/injection, schedule: Q04DX002 (ip), vehicle: saline) was 101 % of control and the T/C (dose: 60.0 mg/kg/injection, schedule: Q01DX005 (ip), vehicle: saline) was 117 % of control and 97 % of control.

`COC(=O)c1nn(-c2ccc(Cl)cc2)c2nc3ccccc3c-2c1C(=O)OC` was tested, and the T/C (dose: 100.0 mg/kg/injection, schedule: Q01DX001 (ip), vehicle: saline with Tween-80) was 96 % of control, the T/C (dose: 200.0 mg/kg/injection, schedule: Q01DX001 (ip), vehicle: saline with Tween-80) was 115 % of control and the T/C (dose: 400.0 mg/kg/injection, schedule: Q01DX001 (ip), vehicle: saline with Tween-80) was 96 % of control.

For `COc1ccc(C(=O)CC(=O)CCC(=O)Nc2cc(C)ccc2C)cc1`, the T/C [4] was 101 % of control, the T/C [5] was 105 % of control and the T/C [6] was 97 % of control.

`CCCCCCCCCCCCCCCCS(=O)(=O)N/N=C(/C)N(C)c1ccc(OC)cc1` was tested, and the T/C (dose: 50.0 mg/kg/injection, schedule: Q01DX009 (ip), vehicle: Klucel (hydroxypropylcellulose) (HPC)) was 107 % of control, the T/C (dose: 100.0 mg/kg/injection, schedule: Q01DX009 (ip), vehicle: Klucel (hydroxypropylcellulose) (HPC)) was 107 % of control and the T/C (dose: 200.0 mg/kg/injection, schedule: Q01DX009 (ip), vehicle: Klucel (hydroxypropylcellulose) (HPC)) was 111 % of control.

For `COC(=O)C(=O)c1c(C(=O)OC)nc2[nH]n(-c3ccccc3)c(=O)c2c1-c1cccc2ccccc12`, the T/C (dose: 30.0 mg/kg/injection, schedule: Q01DX005 (ip), vehicle: saline with Tween-80) was 100 % of control and 110 % of control, the T/C [4] was 98 % of control and 100 % of control and the T/C [5] was 91 % of control and 94 % of control.

In the case of `N#C/C(=C1C=C(Br)/C(=N\O)C=C\1Cl)c1cccc2ccccc12`, the T/C [1] is reported as 103 % of control, the T/C [2] is reported as 102 % of control and the T/C [3] is reported as 102 % of control. For the same compound, the T/C (dose: 400.0 mg/kg/injection, schedule: Q01DX009 (ip), vehicle: saline with Tween-80) was 115 % of control.

With `O=C1NC(=O)C(C(=O)Nc2ccc(Cl)cc2)c2ccccc21` (stereo not given) the T/C [7] was 101 % of control, the T/C [8] was 95 % of control and the T/C [9] was 99 % of control.

With `NC(N)=NCCCC(N)C(=O)NC(CCCN=C(N)N)C(=O)O` (stereo not drawn) (H-Arg-Arg-OH; configuration not given here) the T/C [7] was 103 % of control, the T/C [8] was 100 % of control and the T/C [9] was 100 % of control.

With `CCOC(=O)C1=C(O)C(C)(c2ccc(O)cc2O)N=C1c1ccccc1` (stereo not given) the T/C [7] was 95 % of control, the T/C [8] was 96 % of control and the T/C [9] was 89 % of control.

With `COc1cccc(C(Nc2ncccn2)c2cc3c(cc2O)OCO3)c1O` (stereo not given) the T/C [4] was 103 % of control, the T/C [5] was 94 % of control and the T/C [6] was 94 % of control.

In the case of `N#CC(C(=O)C(=O)Nc1cccc(C(F)(F)F)c1)c1ccccc1Cl` (stereo not given), the T/C [4] is reported as 102 % of control, the T/C [5] is reported as 97 % of control and the T/C [6] is reported as 99 % of control.

`C=C1CC(C)(C)CN(Cc2ccc([N+](=O)[O-])cc2)C(C(=O)OC)=C1C(=O)OC` was tested, and the T/C [7] was 87 % of control, the T/C [8] was 95 % of control and the T/C [9] was 94 % of control.

In the case of `c1ccc2c(c1)SCC1COCOC21` (stereo not given), the T/C [10] is reported as 100 % of control, the T/C [11] is reported as 103 % of control and the T/C (dose: 400.0 mg/kg/injection, schedule: Q04DX003 (ip), vehicle: saline with Tween-80) is reported as 98 % of control.

For `CC1=NN(c2cc(Cl)c(S(=O)(=O)O)cc2Cl)C(=O)C1N=Nc1ccc(S(=O)(=O)O)cc1` (stereo not given), the T/C [12] was 103 % of control, the T/C [13] was 100 % of control and the T/C [14] was 99 % of control.

With `CC1=NC(C)(CO)CO1` (stereo not given) the T/C [12] was 111 % of control, the T/C [13] was 111 % of control and the T/C [14] was 108 % of control. The T/C (dose: 400.0 mg/kg/injection, schedule: Q01DX009 (ip), vehicle: saline) was 105 % of control.

In the case of `CC(C)CNS(=O)(=O)c1ncnc2nc[nH]c12`, the T/C [10] is reported as 100 % of control and the T/C [11] is reported as 87 % of control.

With `CCCCCc1nnc2n1N=C(c1ccc(Cl)cc1)CS2` the T/C [4] was 100 % of control, the T/C [5] was 92 % of control and the T/C [6] was 91 % of control.

For `CCC(c1cccc(O)c1)C(CC)c1cccc(O)c1` (stereo not given), the T/C [7] was 102 % of control, the T/C [8] was 102 % of control and the T/C [9] was 103 % of control.
